# Data published in patent publication US20110104695A1, “METHODS OF PREDICTING THERAPEUTIC EFFICACY OF CANCER THERAPY” (Epigenomics AG, priority 2009, published 2011).
# Experiments:
# TFAP2E [1] = assay: MethyLight analysis of TFAP2E methylation in CRC cell lines; assay type: cell-based, human; settings: all CRC cell lines; after 5-azacytidine treatment
# Experimental: (§1) Colon cancer cell lines LOVO and DLD-1 were obtained from the Deutsche Sammlung von Mikroorganismen und Zellkulturen GmbH (Braunschweig, Germany). SW480, HT-29, HCT-116 and CACO-2 colon cancer cell lines were obtained from ATCC (Washington, D.C., USA). Cells were cultured in 90% DMEM medium supplemented with 10% fetal bovine serum and 2 mM L-glutamine (Invitrogen, Karslruhe, Germany). CACO-2 cells were maintained in 80% DMEM with 20% FBS. Cells were seeded at a density of 1×10^6 cells/60-mm dish, after twenty-four hours incubated with 5-aza-cytidine (final concentration 10 μmol/L; Sigma, Munich, Germany) or the same amount of DMSO as control. Culture medium was changed daily for 3 days with recurrent 5-aza-2-deoxycytidine additions. After 3 days, the cells were harvested for total RNA extraction with the RNeasy Total RNA Mini Kit (Qiagen, Hilden, Germany).
# Primers for methylated TFAP2E covered CpGs in the second CpG island (FIG. 5). […]
# (§2) Genomic DNA was treated with the Epitect Bisulfite Conversion Kit (Qiagen, Hilden, Germany) according to the manufacturer's instructions and then analyzed using the MethyLight technique or MS-HRM as previously described. Cutoff values giving the best discrimination between non-neoplastic mucosa and tumor samples were determined by receiver operating characteristic (ROC) analysis. […]
# TFAP2E [2] = assay: TFAP2E mRNA expression by RT-PCR in CRC cell lines after drug treatment; assay type: cell-based, human
# Experimental: as §1, with “Cells were seeded at a density of 1×10^6 cells/60-mm dish, after twenty-four hours incubated with 5-aza-cytidine (final concentration 10 μmol/L; Sigma, Munich, Germany) or the same amount of DMSO as control.” left out
# The RNA and DNA extraction from cell lines or 10-25 mg of frozen tissue samples was carried out using the RNeasy Total RNA Mini Kit or the QIAmp DNA Mini Kit (Qiagen, Hilden, Germany) respectively, using the manufacturer's instructions.
# Genomic DNA was treated with the Epitect Bisulfite Conversion Kit (Qiagen, Hilden, Germany) according to the manufacturer's instructions and then analyzed using the MethyLight technique or MS-HRM as previously described. Cutoff values giving the best discrimination between non-neoplastic mucosa and tumor samples were determined by receiver operating characteristic (ROC) analysis. The expression analysis of the mRNA was performed by RT-PCR with the Verso cDNA Kit (Thermo Fischer, Darmstadt, Germany) according to the manufacturer's instructions.
# DKK4 = DKK4 mRNA expression in untransfected CRC cell lines; assay type: cell-based, human; settings: SW480 and CACO-2 cells; after 5-azacytidine treatment
# Experimental: as §1, §2
# colorectal cancer = assay: Treatment response in colorectal cancer patient cohorts (RECIST or histology); assay type: in vivo, human; settings: Cohort IV (München), primary rectal cancer, chemoradiotherapy (intravenous 5-FU and 45.0 Gy), 68 patients, histological criteria
# Experimental: Samples were obtained from patients undergoing colorectal cancer surgery or chemotherapy at the University Hospitals in Munich, Mannheim, Bochum, Berlin and Dresden (all Germany). Tissues were obtained during resection of the primary tumor or by biopsy. […] Response to chemotherapy was assessed by RECIST criteria, response to chemoradiotherapy by histology as previously described.
# SW480 cells = assay: Cell survival after drug exposure (MTT assay), transfected SW480 cells
compound,measurement,setting,value
Nc1ncn([C@@H]2O[C@H](CO)[C@@H](O)[C@H]2O)c(=O)n1 [5-azacytidine],TFAP2E methylation (MethyLight),TFAP2E [1],declined
same,TFAP2E expression (RT-PCR),"TFAP2E [2]; CACO-2 and SW480 cells, 5-aza-cytidine 10 μmol/L, 3 days",showed expression after 5-aza-cytidine treatment only
same,DKK4 expression,DKK4,lost
"O=c1[nH]cc(F)c(=O)[nH]1 [5-FU, 5-fluorouracil]",patients classified as responders,colorectal cancer,47%
same,responsiveness to 5-FU,SW480 cells; SW480 transfected with both pTFAP2E and pcDNA3-Dkk4,intermediate responsiveness
same,decrease in survival compared to controls,"SW480 cells; SW480 transiently transfected with pTFAP2E, 5-FU 50 μg/ml, after 2 days",about 20%
same,increase in survival compared to controls,"SW480 cells; SW480 transiently transfected with pcDNA3-Dkk4, 5-FU 50 μg/ml, after 2 days",about 10%
CC(/C=C/C(=O)NO)=C\[C@@H](C)C(=O)c1ccc(N(C)C)cc1 [Trichostatin A],TFAP2E expression after treatment,"TFAP2E [2]; CACO-2 cells, Trichostatin A treatment",weak expression
same,TFAP2E mRNA levels,"TFAP2E [2]; CRC cell lines except CACO-2, Trichostatin A treatment",no effect
